Source: article PMC12166061, “Crystallographic fragment screening reveals ligand hotspots in TRIM21 PRY-SPRY domain” (Communications Chemistry, 2025)
Read-outs that look alike come from different tables or passages of the source.

Tests used:
Assay type in all cases: binding
[1] = biological target: T1, His-SUMO-hTRIM21 PRY-SPRY (Homo sapiens, UniProt P19474); assay: SPR fragment screening, human TRIM21 PRY-SPRY
T1 construct: Human TRIM21 PRY-SPRY domain (residues V287-I465, UniProt-ID: P19474); made in house; host or cells: E. coli BL21(DE3)
T1 sequence (P19474 287-465): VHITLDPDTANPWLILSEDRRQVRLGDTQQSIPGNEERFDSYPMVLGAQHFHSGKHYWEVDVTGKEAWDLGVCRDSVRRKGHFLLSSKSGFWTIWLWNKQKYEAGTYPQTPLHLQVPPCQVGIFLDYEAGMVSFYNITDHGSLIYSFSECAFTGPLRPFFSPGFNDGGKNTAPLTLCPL
Protocol: (§1) His-mTRIM21 PRYSPRY and His-SUMO-hTRIM21 PRY-SPRY were immobilized onto flow channels (FC) FC2, FC3, and FC4 of a Series S sensor chip NTA (Cytiva). […] Proteins (10–20 µg mL^−1 in HBS-P+) were injected at 10 µL min^−1 to achieve response levels of 3500–4300 RU for mTRIM21 and 3600–4000 RU for hTRIM21. Flow channel 1 (FC1) was used as a reference surface. Surface deactivation and nickel stripping were achieved using 1 M ethanolamine and 350 mM ethylenediaminetetraacetic acid (EDTA), respectively.
(§2) Fragment screening was conducted by injecting 500 µM fragments diluted in running buffer (HBS-P+ with 1 mM TCEP and 2% (v/v) dimethyl sulfoxide (DMSO)) over all flow-channels for 30 s at 30 µL/min^−1. To account for surface drift, 50 µM of a control compound (Suramin) was injected every 15 fragment injections, and blank injections were performed every 5 fragments. Responses were analyzed by blank subtraction, reference subtraction (FC1), solvent correction, molecular weight adjustment, and drift correction using Biacore T200 Evaluation Software v3.2.1. The binding threshold for fragment hits was set based on the Suramin-binding response level.

[2] = biological target: T2, murine TRIM21 PRY-SPRY domain (Mus musculus, UniProt Q62191); assay: Differential scanning fluorimetry (DSF, ΔTm), mouse TRIM21 PRY-SPRY domain
T2 construct: mouse TRIM21 PRY-SPRY domain (residues V291-M470, UniProt-ID: Q62191); made in house; host or cells: E. coli BL21(DE3)
T2 sequence (Q62191 291-470): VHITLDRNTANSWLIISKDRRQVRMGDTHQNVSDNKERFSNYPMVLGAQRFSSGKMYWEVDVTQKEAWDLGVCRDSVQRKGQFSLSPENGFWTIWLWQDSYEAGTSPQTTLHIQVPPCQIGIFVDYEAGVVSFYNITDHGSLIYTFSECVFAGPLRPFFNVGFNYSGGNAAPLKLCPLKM
Protocol: (§3) Briefly, recombinant murine and human TRIM21 PRY-SPRY domain at a concentration of 8 μM were mixed with 2 mM compound in their respective SEC buffer. SYPRO Orange (5000×, Invitrogen) was added as a fluorescence probe (1 µl per mL). Subsequently, temperature-dependent protein unfolding profiles were measured using the QuantStudio™ 5 realtime PCR machine (Thermo Fisher). Excitation and emission filters were set to 465 nm and 590 nm, respectively. The temperature was raised with a step rate of 3 °C per minute. Data points were analysed with the internal software (Thermal Shift SoftwareTM Version 1.4, Thermo Fisher) using the Boltzmann equation to determine the inflection point of the transition curve.

His-mTRIM21 PRYSPRY = biological target: T3, His-mTRIM21 PRYSPRY (Mus musculus, UniProt Q62191); assay: SPR fragment screening and dose response, mouse TRIM21 PRY-SPRY
T3 construct: mouse TRIM21 PRY-SPRY domain (residues V291-M470, UniProt-ID: Q62191); made in house; host or cells: E. coli BL21(DE3)
T3 sequence (Q62191 291-470): T2 sequence (Q62191 291-470)
Protocol: as §1, §2
The data was solvent-corrected, reference-subtracted (FC1), and blank-subtracted using the T200 Evaluation Software v3.2.1. Sensorgrams were subsequently replotted using Graphpad v.9 software.

[3] = biological target: T4, human TRIM21 PRY-SPRY domain (Homo sapiens, UniProt P19474); assay: Differential scanning fluorimetry (DSF, ΔTm), human TRIM21 PRY-SPRY domain
T4 construct: Human TRIM21 PRY-SPRY domain (residues V287-I465, UniProt-ID: P19474); His6 (N, cleaved yes); SUMO (N, cleaved yes); made in house; host or cells: E. coli BL21(DE3)
T4 sequence (P19474 287-465): as the sequence (P19474 287-465) above
Protocol: as §3

[4] = single dose 500 µM fragment, relative response, suramin reference threshold 100 relative RU

SMILES	SPR hTRIM21 (Response) [1, 4]	Tm-shift mTRIM21 ([2]; 2 mM compound, 8 μM protein) [°C]	SPR mTRIM21 (Response) (His-mTRIM21 PRYSPRY; [4])	Tm-Shift hTRIM21 ([3]; 2 mM compound, 8 μM protein) [°C]	SPR hTRIM21 (Response) [1]	Tm-shift mTRIM21 [2] [°C]	SPR mTRIM21 (Response) (His-mTRIM21 PRYSPRY)	Tm-Shift hTRIM21 [3] [°C]
CCc1nnc(NC(=O)C2CCCO2)s1 (centres unmarked) [Fragment Z26823525]	48.81	-0.2	54.46	-0.4				
CCCn1c(NC(=O)CC)nc2ccccc21 [Fragment Z29077827]	48.46	-0.6	54.53	-0.7				
CCCc1cc(=O)oc2cc(OC(C)=O)ccc12 [Fragment Z29634868]	95.03		78.57					
CCC(=O)Nc1nc(C)cs1 [Fragment Z30820160]					46.05	-0.5	15.6	-0.2
O=C(c1ccc2c(c1)OCO2)N1CCCCCC1 [Fragment Z31432226]		-0.6		-0.8				
COCC(=O)NCc1ccccc1 [Fragment Z31478538]	38.23	-0.3	37.9	-0.3				
O=C(c1ccco1)N1CCN(C(=O)C2CC2)CC1 [Fragment Z32327641]	35.48	-0.2	37.82	0				
O=C(NC1CC1)c1ccc2c(c1)OCO2 [Fragment Z32367954]					68.73	-0.3	59.37	-0.6
Cc1cccc(C(=O)N2CCC(C(N)=O)CC2)c1 [Fragment Z32400357]	52.75	-0.4	57.58	-0.1				
CS(=O)(=O)NCCc1ccccc1 [Fragment Z45617795]	53.67	-0.3	50.84	-0.2				
CS(=O)(=O)NCCc1ccc(F)cc1 [Fragment Z45705015]	48.3	-0.5	46.34	-0.2				
CC(=O)NCCc1ccccc1C [Fragment Z52314092]	75.76	-0.3	79.62	-0.4				
O=C(O)COc1ccc(F)cc1 [Fragment Z56978034]					99.74	-0.2	107.1	0
CC(=O)Nc1ccc(CN2CCOCC2)cc1 [Fragment Z57450788]	43.78	0	64.68	0.4				
O=C(CN1CCCC1=O)Nc1nccs1 [Fragment Z79432418]					61.55	-0.4	63.39	-0.3
O=C(O)C1CCCN(C(=O)Cc2ccc(F)cc2)C1 (centres unmarked) [Fragment Z85893853]	49.09	-0.4	60.46	-0.1				
Cc1nc2[nH]c(C(C)C)cc(=O)n2n1 [Fragment Z111634612]	61.58	-0.4	63.45	-0.4				
CS(=O)(=O)Cc1nc2ccccc2[nH]1 [Fragment Z126932614]	80.74	-0.1	65.26	-0.2				
